Data published in patent publication US12180207B2 (ARRAY BIOPHARMA INC., priority 2018, dated 2024).

What was measured:
dephosphorylated FGFR2 = dephosphorylated FGFR2 (Homo sapiens (Human), UniProt P21802); assay: FGFR enzyme binding assay (HTRF tracer displacement), FGFR2; conditions: 5 nM dephosphorylated FGFR2, average of multiple determinations if made
Procedure: The potency of compounds inhibiting human isoforms of FGFR kinase was determined using Life Technologies' Homogeneous Time Resolved Fluorescence (HTRF)-based binding assay technology. […] After a 60 minute incubation at 22° C., the extent of tracer displacement was determined using a PerkinElmer EnVision multimode plate reader via HTRF dual wavelength detection, and the percent of control (POC) was calculated using a ratiometric emission factor. One hundred POC was determined using no test compound, and 0 POC was determined in the presence of 1 μM of an appropriate control inhibitor.

[1] = biological target: phosphorylated FGFR3 (SEQ ID NO: 5, amino acids 449 to 759) (Homo sapiens (Human), UniProt P22607); assay: FGFR enzyme binding assay (HTRF tracer displacement), FGFR3; conditions: 5 nM phosphorylated FGFR3, average of multiple determinations if made
Chain of phosphorylated FGFR3 (SEQ ID NO: 5, amino acids 449 to 759) (P22607 449-759): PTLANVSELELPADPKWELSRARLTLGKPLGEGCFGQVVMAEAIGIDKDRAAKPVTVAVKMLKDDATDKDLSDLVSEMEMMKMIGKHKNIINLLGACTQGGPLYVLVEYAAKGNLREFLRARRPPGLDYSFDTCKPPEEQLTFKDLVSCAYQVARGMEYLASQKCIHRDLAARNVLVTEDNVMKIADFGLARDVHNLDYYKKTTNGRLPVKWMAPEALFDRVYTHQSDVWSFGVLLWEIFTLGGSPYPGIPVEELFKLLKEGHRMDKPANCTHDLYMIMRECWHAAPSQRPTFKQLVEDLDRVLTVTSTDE
Procedure, shortened: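 Compounds were tested for displacement of a tracer from human FGFR kinase in a time-resolved FRET binding format. After 60 minutes at 22° C, signal was read at two wavelengths and converted to percent of control, normalised between untreated wells and 1 μM reference inhibitor.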

[2] = biological target: recombinant human FGFR1 catalytic domain (amino acids 308-731) (Homo sapiens (Human), UniProt P11362); assay: FGFR1 enzyme activity assay (LanthaScreen TR-FRET); format: biochemical; conditions: 20 min incubation at 22° C., average of multiple determinations if made, read-out: FGFR1 Enz FRET IC50
Chain of recombinant human FGFR1 catalytic domain (amino acids 308-731) (P11362 other isoform, or with tags, fused parts or gaps): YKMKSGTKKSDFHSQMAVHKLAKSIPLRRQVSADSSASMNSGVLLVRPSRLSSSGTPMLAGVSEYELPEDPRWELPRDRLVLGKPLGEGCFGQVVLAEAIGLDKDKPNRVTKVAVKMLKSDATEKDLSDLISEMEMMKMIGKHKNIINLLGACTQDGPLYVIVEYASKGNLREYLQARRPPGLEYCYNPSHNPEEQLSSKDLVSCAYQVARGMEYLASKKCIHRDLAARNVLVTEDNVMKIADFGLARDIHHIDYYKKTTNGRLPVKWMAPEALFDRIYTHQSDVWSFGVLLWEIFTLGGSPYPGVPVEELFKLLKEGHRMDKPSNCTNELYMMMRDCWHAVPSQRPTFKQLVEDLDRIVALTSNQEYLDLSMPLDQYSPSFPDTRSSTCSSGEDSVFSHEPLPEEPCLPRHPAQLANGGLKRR
Procedure, shortened: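 His-tagged FGFR1 kinase domain with 100 nM Alexa Fluor 647-poly-GT peptide and ATP in pH 7.5 HEPES/MgCl2 buffer with 2% DMSO, 20 min at 22 °C. Quenched with EDTA plus 2 nM Eu-PY20 antibody and read after 60 min. IC50 comes from a 4-parameter fit of percent of control.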

[3] = biological target: recombinant human FGFR2 cytoplasmic domain (amino acids 403-822) (Homo sapiens (Human), UniProt P21802); assay: FGFR2 enzyme activity assay (LanthaScreen TR-FRET); format: biochemical; conditions: 15 μM ATP, 20 min incubation at 22° C., average of multiple determinations if made, read-out: FGFR2 Enz FRET IC50
Chain of recombinant human FGFR2 cytoplasmic domain (amino acids 403-822) (P21802 402-821): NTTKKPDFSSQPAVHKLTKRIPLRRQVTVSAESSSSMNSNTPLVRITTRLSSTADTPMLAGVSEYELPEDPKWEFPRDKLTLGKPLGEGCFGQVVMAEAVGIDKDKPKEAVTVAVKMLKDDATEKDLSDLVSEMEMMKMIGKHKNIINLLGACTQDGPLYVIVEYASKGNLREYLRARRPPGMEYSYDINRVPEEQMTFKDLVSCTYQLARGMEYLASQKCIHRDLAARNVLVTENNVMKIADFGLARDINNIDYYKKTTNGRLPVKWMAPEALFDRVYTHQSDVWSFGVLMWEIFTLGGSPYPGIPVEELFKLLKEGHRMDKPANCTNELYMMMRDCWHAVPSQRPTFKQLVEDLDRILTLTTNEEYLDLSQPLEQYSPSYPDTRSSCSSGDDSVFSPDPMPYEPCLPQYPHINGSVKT
Procedure, shortened: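 His-tagged FGFR2 cytoplasmic domain ([…]) with 100 nM Alexa Fluor 647-poly-GT peptide and 15 μM ATP in HEPES/MgCl2/Triton buffer, pH 7.5, 2% DMSO, 20 min at 22 °C. EDTA-quenched, Eu-PY20 antibody added, TR-FRET read after 60 min.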

[4] = biological target: HEK-293 cells transfected with dox-inducible human wild type FGFR3 (Homo sapiens (Human), UniProt P22607); assay: FGFR3 pERK cell assay; format: cell-based; conditions: HEK-293 dox-inducible FGFR3, 1 hour compound, 100 ng/ml FGF-acidic; maximum concentration 5 μM
Chain of HEK-293 cells transfected with dox-inducible human wild type FGFR3 (P22607 23-806): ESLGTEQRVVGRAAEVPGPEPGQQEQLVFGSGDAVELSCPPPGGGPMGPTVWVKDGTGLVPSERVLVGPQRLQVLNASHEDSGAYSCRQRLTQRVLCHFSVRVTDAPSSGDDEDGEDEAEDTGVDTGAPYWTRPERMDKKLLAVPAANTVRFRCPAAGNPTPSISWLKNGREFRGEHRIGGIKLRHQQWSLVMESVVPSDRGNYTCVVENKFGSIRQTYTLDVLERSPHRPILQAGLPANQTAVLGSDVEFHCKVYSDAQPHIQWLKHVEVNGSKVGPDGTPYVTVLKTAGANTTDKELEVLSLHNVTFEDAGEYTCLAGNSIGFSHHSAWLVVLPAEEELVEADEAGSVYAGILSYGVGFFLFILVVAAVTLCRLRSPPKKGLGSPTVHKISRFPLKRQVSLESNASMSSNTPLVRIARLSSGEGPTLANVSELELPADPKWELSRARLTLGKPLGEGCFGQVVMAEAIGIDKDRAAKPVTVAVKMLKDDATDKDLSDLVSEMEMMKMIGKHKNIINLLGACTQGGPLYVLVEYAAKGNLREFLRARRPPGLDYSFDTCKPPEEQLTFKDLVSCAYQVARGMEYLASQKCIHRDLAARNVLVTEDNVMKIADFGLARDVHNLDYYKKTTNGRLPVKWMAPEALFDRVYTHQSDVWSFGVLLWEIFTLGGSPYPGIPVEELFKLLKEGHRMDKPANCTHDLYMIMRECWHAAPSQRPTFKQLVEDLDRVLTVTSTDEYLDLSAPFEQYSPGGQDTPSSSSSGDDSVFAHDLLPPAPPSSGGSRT
Procedure, shortened: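 Doxycycline-induced cells preincubated 1 h at 37 °C with compound (1:3 dilutions, top 5 μM final), then stimulated 5 min with 100 ng/ml FGF-acidic. Lysate phospho-ERK1/2 measured by MSD sandwich assay; IC50 at 50 POC from 4-parameter fit, normalised to no-compound and control-compound wells.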

Chain of dephosphorylated FGFR2 (P21802 22-821): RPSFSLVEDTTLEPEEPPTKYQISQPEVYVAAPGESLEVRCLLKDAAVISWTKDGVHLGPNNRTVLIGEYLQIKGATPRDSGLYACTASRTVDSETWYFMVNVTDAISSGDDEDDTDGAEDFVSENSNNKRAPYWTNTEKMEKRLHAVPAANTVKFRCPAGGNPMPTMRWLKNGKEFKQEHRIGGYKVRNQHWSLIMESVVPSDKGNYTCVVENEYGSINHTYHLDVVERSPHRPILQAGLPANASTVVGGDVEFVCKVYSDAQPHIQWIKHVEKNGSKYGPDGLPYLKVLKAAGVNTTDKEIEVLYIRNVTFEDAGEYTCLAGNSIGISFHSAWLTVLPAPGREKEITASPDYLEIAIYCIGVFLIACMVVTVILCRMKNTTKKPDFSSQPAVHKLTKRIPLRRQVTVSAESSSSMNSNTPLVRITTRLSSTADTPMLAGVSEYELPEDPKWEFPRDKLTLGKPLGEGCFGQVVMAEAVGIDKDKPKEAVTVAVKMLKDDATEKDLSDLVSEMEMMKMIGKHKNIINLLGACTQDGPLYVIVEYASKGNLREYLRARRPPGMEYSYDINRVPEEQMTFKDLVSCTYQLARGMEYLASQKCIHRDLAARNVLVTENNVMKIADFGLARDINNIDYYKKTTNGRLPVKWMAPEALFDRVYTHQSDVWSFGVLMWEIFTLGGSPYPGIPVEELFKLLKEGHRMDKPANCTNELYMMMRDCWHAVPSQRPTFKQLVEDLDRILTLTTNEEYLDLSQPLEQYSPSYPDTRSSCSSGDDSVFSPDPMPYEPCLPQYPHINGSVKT

SMILES	IC50 (dephosphorylated FGFR2)	IC50 [1]	IC50 [2]	IC50 [3]	IC50 [4]
C=CC(=O)N1CC(C(=O)N2CCC3(C2)CN(c2ccc(-c4cc(OC)c5c(C#N)cnn5c4)cn2)C3)C1 [Example 103, 6-(6-(6-(1-acryloylazetidine-3-carbonyl)-2,6-diazaspiro[3.4]octan-2-yl)pyridin-3-yl)-4-methoxypyrazolo[1,5-a]pyridine-3-carbonitrile]	39 nM	10 nM	49 nM	10 nM	137 nM
C=CC(=O)N1CC(C(=O)N2CC3(C2)CN(c2ccc(-c4cc(OC)c5c(C#N)cnn5c4)cn2)C3)C1 [Example 104, 6-(6-(6-(1-acryloylazetidine-3-carbonyl)-2,6-diazaspiro[3.3]heptan-2-yl)pyridin-3-yl)-4-methoxypyrazolo[1,5-a]pyridine-3-carbonitrile]	45 nM	12 nM	63 nM	20 nM	146 nM
C=CC(=O)N1CC(C(=O)N2CC3CC(C2)N3c2ccc(-c3cc(OC)c4c(C#N)cnn4c3)cn2)C1 [Example 105, 6-(6-(3-(1-acryloylazetidine-3-carbonyl)-3,6-diazabicyclo[3.1.1]heptan-6-yl)pyridin-3-yl)-4-methoxypyrazolo[1,5-a]pyridine-3-carbonitrile]	226 nM	97 nM	193 nM	42 nM	2660 nM
C=CC(=O)N1CC(C(=O)N2C[C@@H]3C[C@H]2CN3c2ccc(-c3cc(OC)c4c(C#N)cnn4c3)cn2)C1 [Example 106, 6-(6-((1S,4S)-5-(1-acryloylazetidine-3-carbonyl)-2,5-diazabicyclo[2.2.1]heptan-2-yl)pyridin-3-yl)-4-methoxypyrazolo[1,5-a]pyridine-3-carbonitrile]	30 nM	9 nM	61 nM	11 nM	244 nM
C=CC(=O)N1CC(C(=O)N2C[C@H]3C[C@@H]2CN3c2ccc(-c3cc(OC)c4c(C#N)cnn4c3)cn2)C1 [Example 107, 6-(6-((1R,4R)-5-(1-acryloylazetidine-3-carbonyl)-2,5-diazabicyclo[2.2.1]heptan-2-yl)pyridin-3-yl)-4-methoxypyrazolo[1,5-a]pyridine-3-carbonitrile]	56 nM	16 nM	68 nM	9 nM	355 nM
C=CC(=O)N1CC(CN2C[C@H]3C[C@@H]2CN3c2ccc(-c3cc(OC)c4c(C#N)cnn4c3)cn2)C1 [Example 108, 6-(6-((1R,4R)-5-((1-acryloylazetidin-3-yl)methyl)-2,5-diazabicyclo[2.2.1]heptan-2-yl)pyridin-3-yl)-4-methoxypyrazolo[1,5-a]pyridine-3-carbonitrile]	28 nM	11 nM	20 nM	7 nM	47 nM
C=CC(=O)N1CC(F)(C(=O)N2CCN(c3ccc(-c4cc(OC)c5c(C#N)cnn5c4)cn3)CC2)C1 [Example 112, 6-(6-(4-(1-acryloyl-3-fluoroazetidine-3-carbonyl)piperazin-1-yl)pyridin-3-yl)-4-methoxypyrazolo[1,5-a]pyridine-3-carbonitrile]	16 nM	4 nM	21 nM	9 nM	21 nM
C=CC(=O)N1CC(OC)(C(=O)N2CCC(n3ncc(-c4cc(OC)c5c(Cl)cnn5c4)c3C)CC2)C1 [Example 117, 1-(3-(4-(4-(3-chloro-4-methoxypyrazolo[1,5-a]pyridin-6-yl)-5-methyl-1H-pyrazol-1-yl)piperidine-1-carbonyl)-3-methoxyazetidin-1-yl)prop-2-en-1-one]	103 nM	19 nM	789 nM	359 nM	36 nM
C=CC(=O)N1CC(CN2CCC(n3ncc(-c4cc(OC)c5c(Cl)cnn5c4)c3C)CC2)C1 [Example 118, 1-(3-((4-(4-(3-chloro-4-methoxypyrazolo[1,5-a]pyridin-6-yl)-5-methyl-1H-pyrazol-1-yl)piperidin-1-yl)methyl)azetidin-1-yl)prop-2-en-1-one]	56 nM	9 nM	551 nM	239 nM	62 nM
C=CC(=O)N1CC(CN2CCC(n3ncc(-c4cc(OC)c5c(Cl)cnn5c4)c3C)CC2)(OC)C1 [Example 119, 1-(3-((4-(4-(3-chloro-4-methoxypyrazolo[1,5-a]pyridin-6-yl)-5-methyl-1H-pyrazol-1-yl)piperidin-1-yl)methyl)-3-methoxyazetidin-1-yl)prop-2-en-1-one]	60 nM	8 nM	334 nM	219 nM	50 nM
C=CC(=O)N1CC(CN2CCC(n3ncc(-c4cc(OC)c5c(Cl)cnn5c4)c3C)CC2)C1(C)C (stereo not shown) [Example 120, 1-(3-((4-(4-(3-chloro-4-methoxypyrazolo[1,5-a]pyridin-6-yl)-5-methyl-1H-pyrazol-1-yl)piperidin-1-yl)methyl)-2,2-dimethylazetidin-1-yl)prop-2-en-1-one]	84 nM	33 nM	338 nM	39 nM	142 nM
C=CC(=O)N1CC(F)(C(=O)N2CCC(n3cc(-c4cc(OC)c5c(Cl)cnn5c4)cn3)CC2)C1 [Example 121, 1-(3-(4-(4-(3-chloro-4-methoxypyrazolo[1,5-a]pyridin-6-yl)-1H-pyrazol-1-yl)piperidine-1-carbonyl)-3-fluoroazetidin-1-yl)prop-2-en-1-one]	12 nM	3 nM	28 nM	13 nM	25 nM
C=CC(=O)N1CCN(C(=O)N2CCC(n3cc(-c4cc(OC)c5c(C#N)cnn5c4)cn3)CC2)C[C@@H]1CC#N [Example 135, (S)-6-(1-(1-(4-acryloyl-3-(cyanomethyl)piperazine-1-carbonyl)piperidin-4-yl)-1H-pyrazol-4-yl)-4-methoxypyrazolo[1,5-a]pyridine-3-carbonitrile]	13 nM	3 nM	20 nM	4 nM	40 nM
COc1cc(-c2cnn(C3CCN(C(=O)C4CN(C(=O)C5=CCC5)C4)CC3)c2)cn2ncc(C#N)c12 [Example 137, 6-(1-(1-(1-(cyclobut-1-ene-1-carbonyl)azetidine-3-carbonyl)piperidin-4-yl)-1H-pyrazol-4-yl)-4-methoxypyrazolo[1,5-a]pyridine-3-carbonitrile]	15 nM	8 nM	12 nM	4 nM	318 nM
COc1cc(-c2cnn(C3CCN(C(=O)C4CN(C(=O)/C=C/CO)C4)CC3)c2)cn2ncc(C#N)c12 [Example 141, (E)-6-(1-(1-(1-(4-hydroxybut-2-enoyl)azetidine-3-carbonyl)piperidin-4-yl)-1H-pyrazol-4-yl)-4-methoxypyrazolo [1,5-a]pyridine-3-carbonitrile]	18 nM	6 nM	43 nM	5 nM	3910 nM
C=CC(=O)N1CC(CN2CCC(n3ncc(-c4cc(OC)c5c(C#N)cnn5c4)c3C)CC2)C1(C)C (stereo not shown) [Example 151, 6-(1-(1-((1-acryloyl-2,2-dimethylazetidin-3-yl)methyl)piperidin-4-yl)-5-methyl-1H-pyrazol-4-yl)-4-methoxypyrazolo [1,5-a]pyridine-3-carbonitrile]	38 nM	11 nM	86 nM	9 nM	592 nM
COc1cc(-c2cnn(C3CCN(C(=O)C4CN(C(=O)/C=C/CN(C)C)C4)CC3)c2C)cn2ncc(C#N)c12 [Example 152, (E)-6-(1-(1-(1-(4-(dimethylamino)but-2-enoyl)azetidine-3-carbonyl)piperidin-4-yl)-5-methyl-1H-pyrazol-4-yl)-4-methoxypyrazolo [1,5-a]pyridine-3-carbonitrile]	49 nM	7 nM	99 nM	35 nM	849 nM
